Source: patent US20260274814A1, “THIENYL COMPOUNDS FOR THE TREATMENT OF A CENTRAL NERVOUS SYSTEM DISEASE OR DISORDER” (Coreterra Therapeutics, Inc., priority 2023, published 2026)
Structures can show the parent of a compound that is named as a salt.

System: mice
Assay: Neuropharmacological Assay (SmartCube): automated behavioral signature of compound-treated mice compared with a database of reference drug classes
Format: in vivo
Conditions: for AG / AN / CE / HL / MS / PS / SH / UK / AD / AP / AX: probability that activity matches this class of agents, 3.0 mg/kg i.p., 15 min before test
Source text: Neurosci. 2011 Sep. 9; 5: 103 (doi: 10.3389/fnins.2011.00103) (“Roberds”). As reported in Roberds, because psychiatric diseases generally result from disorders of cell-cell communication or circuitry, intact systems are useful in detecting improvement in disease-relevant endpoints. These endpoints are typically behavioral in nature, often requiring human observation and interpretation. To facilitate testing of multiple compounds for behavioral effects relevant to psychiatric disease, PsychoGenics, Inc. (Tarrytown, NY, “PGI”) developed SmartCube™ an automated system in which behaviors of compound-treated mice are captured by digital video and analyzed with computer algorithms. (D. Brunner et al. Drug Discov. Today 2002, 7:S107-S112). PGI Analytical Systems uses data from SmartCube™ to compare the behavioral signature of a test compound to a database of behavioral signatures obtained using a large set of diverse reference compounds. (The composition of the database as well as validation of the method is further described in Roberds). In this way, the neuropharmacological effects of a test compound can be predicted by similarity to major classes of compounds, such as antipsychotics, anxiolytics and antidepressants.
The SmartCube™ system produces an activity signature indicating the probability that the activity of the test compound at the administered dose matches a given class of neuropharmacological agents. (See, e.g., Roberds, FIGS. 2 and 3). The test compound is simultaneously compared against multiple classes of agents; thus, a separate probability is generated for each behavioral effect measured (e.g., anxiolytic activity, analgesic activity, etc.). In table 2 below, these probabilities are reported for each behavioral effect measured as described in Table 1 below.
Provided compounds were dissolved in a mixture of Pharmasolve™ (N-methyl-2-pyrrolidone), polyethylene glycol and propylene glycol, and were injected i.p. 15 min. before the behavioral test. For each compound, injections were administered at 3 different doses. For each behavioral effect measured, results for the 3.0 mg/kg dose are presented. The potency of many of the compounds in the table was also determined in the SmartCube™ system. Test compounds were routinely examined at dose levels of 0.3, 1, 3 and 10 mg per kg (mpk), although the dose range was increased or decreased, if necessary, to obtain a full dose response curve. A compound's minimal effective dose (MED) is a measure of the compound's potency. The MED was defined as the dose (in mpk) having 45% or more total activity in SmartCube. If only one dose was tested, that dose is shown in the MED column of Table 2 even though the dose is not known to be the MED.

[1] = dose having 45% or more total activity in SmartCube, i.p., if only one dose was tested, that dose is shown, hydrochloride

Compound | MED (minimal effective dose) [1] [mpk] | AG | AN | CE | HL | MS | PS | SH | UK | AD (hydrochloride, 3 mg/kg) | AP (hydrochloride, 3 mg/kg) | AX (hydrochloride, 3 mg/kg) | AP | CE (hydrochloride, 3 mg/kg) | UK (hydrochloride, 3 mg/kg) | minimal effective dose (Mus musculus, ip, dose having 45% or more total activity in SmartCube, i.p., if only one dose was tested, that dose is shown, read-out: MED (minimal effective dose)) [mg/kg] | AD | AX | MED (minimal effective dose) (dose having 45% or more total activity in SmartCube, i.p., if only one dose was tested, that dose is shown) [mpk] | SH (hydrochloride, 3 mg/kg)
Cl.c1cc2c(s1)CC(N1CCCC1)CC2 (single isomer, unassigned) [Compound 18, 1-(4,5,6,7-tetrahydrobenzothiophen-6-yl)pyrrolidine hydrochloride] | 0.3 | ND (^ <4%) | ND (^ <4%) | ND (^ <4%) | ND (^ <4%) | ND (^ <4%) | ND (^ <4%) | ND (^ <4%) | ND (^ <4%) | ++++ (≥74%) | + (≥4%) | ND (^ <4%) | – | – | – | – | – | – | – | –
CNC1Cc2ccsc2C1.Cl (single isomer, unassigned) [Compound 19, N-methyl-5,6-dihydro-4H-cyclopenta[b]thiophen-5-amine hydrochloride] | 3.0 | ND (^ <4%) | ND (^ <4%) | – | ND (^ <4%) | ND (^ <4%) | ND (^ <4%) | ND (^ <4%) | – | ++ (≥24%) | – | ++ (≥24%) | + (≥4%) | ND (^ <4%) | + (≥4%) | – | – | – | – | –
CNC1Cc2ccsc2C1.Cl (single isomer, unassigned) [Compound 20, N-methyl-5,6-dihydro-4H-cyclopenta[b]thiophen-5-amine hydrochloride] | 1.0 | ND (^ <4%) | ND (^ <4%) | – | ND (^ <4%) | ND (^ <4%) | ND (^ <4%) | ND (^ <4%) | – | ++++ (≥74%) | – | + (≥4%) | + (≥4%) | + (≥4%) | ND (^ <4%) | – | – | – | – | –
Cl.c1cc2c(s1)CC(N1CCOCC1)CC2 (single isomer, unassigned) [Compound 22, 4-(4,5,6,7-tetrahydrobenzo[b]thiophen-6-yl)morpholine hydrochloride] | – | ND (^ <4%) | ND (^ <4%) | ND (^ <4%) | ND (^ <4%) | ND (^ <4%) | ND (^ <4%) | ND (^ <4%) | – | – | – | – | ND (^ <4%) | – | + (≥4%) | > 10 | ND (^ <4%) | ND (^ <4%) | – | –
Cl.c1cc2c(s1)CC(N1CCOCC1)CC2 (single isomer, unassigned) [Compound 23, 4-(4,5,6,7-tetrahydrobenzo[b]thiophen-6-yl)morpholine hydrochloride] | – | ND (^ <4%) | ND (^ <4%) | ND (^ <4%) | ND (^ <4%) | ND (^ <4%) | ND (^ <4%) | ND (^ <4%) | – | – | – | – | ND (^ <4%) | – | ND (^ <4%) | – | ND (^ <4%) | ND (^ <4%) | >10 | –
CNC1CCCc2ccsc2C1.Cl (single isomer, unassigned) [Compound 25, N-methyl-5,6,7,8-tetrahydro-4H-cyclohepta[b]thiophen-7-amine hydrochloride] | 1.0 | ND (^ <4%) | ND (^ <4%) | – | ND (^ <4%) | ND (^ <4%) | ND (^ <4%) | – | – | – | ++++ (≥74%) | – | – | ND (^ <4%) | ND (^ <4%) | – | ND (^ <4%) | ND (^ <4%) | – | ND (^ <4%)
CNC1CCCc2ccsc2C1.Cl (single isomer, unassigned) [Compound 26, N-methyl-5,6,7,8-tetrahydro-4H-cyclohepta[b]thiophen-7-amine hydrochloride] | 3.0 | ND (^ <4%) | ND (^ <4%) | – | ND (^ <4%) | ND (^ <4%) | ND (^ <4%) | – | – | – | ND (^ <4%) | – | – | + (≥4%) | ++ (≥24%) | – | ND (^ <4%) | ND (^ <4%) | – | + (≥4%)
CNC1CCc2cc(C)sc2C1 (single isomer, unassigned) [Compound 28, N, 2-dimethyl-4,5,6,7-tetrahydrobenzothiophen-6-amine hydrochloride] | 3.0 | ND (^ <4%) | ND (^ <4%) | ND (^ <4%) | ND (^ <4%) | ND (^ <4%) | ND (^ <4%) | ND (^ <4%) | – | +++ (≥49%) | ND (^ <4%) | – | – | – | ND (^ <4%) | – | – | ++ (≥24%) | – | –
CNC1CCc2cc(C)sc2C1 (single isomer, unassigned) [Compound 29, N, 2-dimethyl-4,5,6,7-tetrahydrobenzothiophen-6-amine hydrochloride] | 1.0 | ND (^ <4%) | ND (^ <4%) | ND (^ <4%) | ND (^ <4%) | ND (^ <4%) | ND (^ <4%) | ND (^ <4%) | – | ND (^ <4%) | +++ (≥49%) | – | – | – | + (≥4%) | – | – | ++ (≥24%) | – | –
CNC1CCc2c(C)sc(C)c2C1 (single isomer, unassigned) [Compound 30, N, 1,3-trimethyl-4,5,6,7-tetrahydro-2-benzothiophen-5-amine hydrochloride] | 0.3 | ND (^ <4%) | ND (^ <4%) | ND (^ <4%) | ND (^ <4%) | ND (^ <4%) | ND (^ <4%) | – | ND (^ <4%) | – | ++++ (≥74%) | ND (^ <4%) | – | – | – | – | ND (^ <4%) | – | – | + (≥4%)
CNC1CCc2c(C)sc(C)c2C1 (single isomer, unassigned) [Compound 31, N, 1,3-trimethyl-4,5,6,7-tetrahydro-2-benzothiophen-5-amine hydrochloride] | 3.0 | ND (^ <4%) | ND (^ <4%) | ND (^ <4%) | ND (^ <4%) | ND (^ <4%) | ND (^ <4%) | – | ND (^ <4%) | – | +++ (≥49%) | ++ (≥24%) | – | – | – | – | ND (^ <4%) | – | – | ND (^ <4%)
CNC1CCc2c(csc2C)C1 (single isomer, unassigned) [Compound 32, N, 1-dimethyl-4,5,6,7-tetrahydro-2-benzothiophen-5-amine hydrochloride] | 1.0 | ND (^ <4%) | ND (^ <4%) | ND (^ <4%) | ND (^ <4%) | ND (^ <4%) | ND (^ <4%) | ND (^ <4%) | ND (^ <4%) | – | + (≥4%) | ++ (≥24%) | – | – | – | – | +++ (≥49%) | – | – | –
CNC1CCc2c(csc2C)C1 (single isomer, unassigned) [Compound 33, N, 1-dimethyl-4,5,6,7-tetrahydro-2-benzothiophen-5-amine hydrochloride] | 0.3 | ND (^ <4%) | ND (^ <4%) | ND (^ <4%) | ND (^ <4%) | ND (^ <4%) | ND (^ <4%) | ND (^ <4%) | ND (^ <4%) | – | ++ (≥24%) | ND (^ <4%) | – | – | – | – | +++ (≥49%) | – | – | –
